In paper PMC12300041, “Tricyclic Isatin Derivatives as Anti-Inflammatory Compounds with High Kinase Binding Affinity” (Molecules, 2025):

Columns and labels:
Test in all cases: KINOMEscan
FLT3 (ITD, D835V) = assay type: binding, human; conditions: 10 μM
Experimental: (§1) Kinase profiling was performed by KINOMEscan (Eurofins Pharma Discovery, San Diego, CA, USA), using a panel of 423 protein kinases, as described previously. Compounds were submitted for dissociation constant (Kd) determination toward several target kinases using KINOMEscan. […] Binding reactions were performed at room temperature for 1 h, and the fraction of kinase not bound to the test compound was determined by capture with an immobilized affinity ligand and quantified by quantitative polymerase chain reaction. The primary screening at fixed concentrations of the compound was performed in duplicate. For dissociation constant Kd determination, a 12-point half-log dilution series (a maximum concentration of 33 μM) was used.

FLT3 (ITD) = assay type: binding, human; conditions: 10 μM
Experimental: as §1

PIK3CA (Q546K) = biological target: T1, PIK3CA (Q546K) (Homo sapiens, UniProt P42336, Q546K); assay type: binding
T1 construct: purchased Eurofins DiscoverX KINOMEscan
In short: (§2)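 Dissociation constants derive from a 12-point, half-log compound titration (highest 33 μM). Each binding reaction ran 1 h at room temperature before qPCR quantification of kinase captured on an immobilized affinity ligand.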

MAP3K2 = biological target: T2, MAP3K2 (Homo sapiens, UniProt Q9Y2U5); assay type: binding
T2 construct: purchased Eurofins DiscoverX KINOMEscan
In short: as §2

TIE1 = biological target: T3, TIE1 (Homo sapiens, UniProt P35590); assay type: binding
T3 construct: purchased Eurofins DiscoverX KINOMEscan
In short: as §2

CHEK2 = biological target: T4, CHEK2 (Homo sapiens, UniProt O96017); assay type: binding
T4 construct: purchased Eurofins DiscoverX KINOMEscan
In short: as §2

WEE2 = biological target: T5, WEE2 (Homo sapiens, UniProt P0C1S8); assay type: binding
T5 construct: purchased Eurofins DiscoverX KINOMEscan
In short: as §2

MYLK2 = biological target: T6, MYLK2 (Homo sapiens, UniProt Q9H1R3); assay type: binding
T6 construct: purchased Eurofins DiscoverX KINOMEscan
In short: as §2

BMX = biological target: T7, BMX (Homo sapiens, UniProt P51813); assay type: binding
T7 construct: purchased Eurofins DiscoverX KINOMEscan
In short: as §2

EPHB6 = biological target: T8, EPHB6 (Homo sapiens, UniProt O15197); assay type: binding
T8 construct: purchased Eurofins DiscoverX KINOMEscan
In short: as §2

KIT (D816V) = biological target: T9, KIT (D816V) (Homo sapiens, UniProt P10721, D816V); assay type: binding
T9 construct: purchased Eurofins DiscoverX KINOMEscan
T9 sequence (P10721 26-976 D816V): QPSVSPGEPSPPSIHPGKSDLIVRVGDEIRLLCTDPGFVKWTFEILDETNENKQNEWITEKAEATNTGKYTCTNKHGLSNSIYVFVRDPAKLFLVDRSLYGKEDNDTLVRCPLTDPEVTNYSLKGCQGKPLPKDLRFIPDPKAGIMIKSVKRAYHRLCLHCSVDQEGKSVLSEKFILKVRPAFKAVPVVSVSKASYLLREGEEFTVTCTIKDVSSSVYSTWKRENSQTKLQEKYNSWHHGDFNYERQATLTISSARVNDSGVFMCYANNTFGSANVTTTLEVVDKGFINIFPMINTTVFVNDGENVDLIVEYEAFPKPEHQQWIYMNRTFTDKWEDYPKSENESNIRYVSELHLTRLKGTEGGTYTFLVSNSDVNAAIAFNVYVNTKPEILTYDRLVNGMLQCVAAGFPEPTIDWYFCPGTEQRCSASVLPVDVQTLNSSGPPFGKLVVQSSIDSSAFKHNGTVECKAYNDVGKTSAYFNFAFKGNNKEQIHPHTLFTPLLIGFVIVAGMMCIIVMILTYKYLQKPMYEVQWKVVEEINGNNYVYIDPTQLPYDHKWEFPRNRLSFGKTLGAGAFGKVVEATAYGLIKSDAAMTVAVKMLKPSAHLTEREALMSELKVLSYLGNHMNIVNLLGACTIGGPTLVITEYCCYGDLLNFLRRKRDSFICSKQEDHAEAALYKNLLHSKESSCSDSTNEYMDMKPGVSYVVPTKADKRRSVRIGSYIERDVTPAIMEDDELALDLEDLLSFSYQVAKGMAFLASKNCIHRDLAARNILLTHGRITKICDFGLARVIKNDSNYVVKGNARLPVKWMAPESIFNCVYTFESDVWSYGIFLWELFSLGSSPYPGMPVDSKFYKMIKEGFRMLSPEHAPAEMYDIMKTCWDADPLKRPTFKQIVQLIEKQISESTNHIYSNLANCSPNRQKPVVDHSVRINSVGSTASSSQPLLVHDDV
In short: as §2

DMPK = biological target: T10, DMPK (Homo sapiens, UniProt Q09013); assay type: binding
T10 construct: purchased Eurofins DiscoverX KINOMEscan
In short: (§3)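 Kd determination: 12-pt half-log series, top 33 μM; 1 h binding, RT; unbound kinase pulled down on immobilized ligand, measured by qPCR.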

BLK = biological target: T11, BLK (Homo sapiens, UniProt P51451); assay type: binding
T11 construct: purchased Eurofins DiscoverX KINOMEscan
In short: as §2

MST1R = biological target: T12, MST1R (Homo sapiens, UniProt Q04912); assay type: binding
T12 construct: purchased Eurofins DiscoverX KINOMEscan
In short: as §2

RIPK2 = biological target: T13, RIPK2 (Homo sapiens, UniProt O43353); assay type: binding
T13 construct: purchased Eurofins DiscoverX KINOMEscan
In short: as §3

RET (V804M) = biological target: T14, RET (V804M) (Homo sapiens, UniProt P07949, V804M); assay type: binding
T14 construct: purchased Eurofins DiscoverX KINOMEscan
T14 sequence (P07949 29-1114 V804M): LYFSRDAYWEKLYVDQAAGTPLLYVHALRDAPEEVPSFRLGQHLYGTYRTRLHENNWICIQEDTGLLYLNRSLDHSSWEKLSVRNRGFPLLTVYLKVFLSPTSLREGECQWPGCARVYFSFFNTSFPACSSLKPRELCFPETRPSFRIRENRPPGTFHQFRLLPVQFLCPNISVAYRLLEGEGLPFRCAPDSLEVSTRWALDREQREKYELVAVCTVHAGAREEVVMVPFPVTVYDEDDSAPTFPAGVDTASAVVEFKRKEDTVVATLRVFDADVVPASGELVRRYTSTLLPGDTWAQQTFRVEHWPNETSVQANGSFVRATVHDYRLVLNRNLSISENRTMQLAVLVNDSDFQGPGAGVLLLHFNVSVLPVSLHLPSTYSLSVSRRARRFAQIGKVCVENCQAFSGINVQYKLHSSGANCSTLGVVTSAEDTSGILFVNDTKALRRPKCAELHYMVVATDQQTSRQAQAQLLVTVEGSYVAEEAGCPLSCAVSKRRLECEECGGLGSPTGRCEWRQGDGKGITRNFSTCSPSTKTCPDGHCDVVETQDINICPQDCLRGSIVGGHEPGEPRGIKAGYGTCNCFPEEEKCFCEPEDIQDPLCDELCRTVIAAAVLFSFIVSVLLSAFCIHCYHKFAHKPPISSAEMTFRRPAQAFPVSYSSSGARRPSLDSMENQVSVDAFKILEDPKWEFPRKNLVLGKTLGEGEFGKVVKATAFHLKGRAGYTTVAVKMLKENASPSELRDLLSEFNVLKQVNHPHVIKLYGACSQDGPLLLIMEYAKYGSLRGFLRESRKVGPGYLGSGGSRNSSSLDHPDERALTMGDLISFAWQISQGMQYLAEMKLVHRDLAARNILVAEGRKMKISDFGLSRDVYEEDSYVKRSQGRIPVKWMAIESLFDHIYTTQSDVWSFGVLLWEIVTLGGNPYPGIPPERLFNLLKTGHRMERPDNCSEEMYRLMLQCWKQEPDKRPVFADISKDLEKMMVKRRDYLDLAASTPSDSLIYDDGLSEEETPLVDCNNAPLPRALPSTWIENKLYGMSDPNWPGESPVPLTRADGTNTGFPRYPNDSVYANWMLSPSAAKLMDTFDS
In short: as §2

FER = biological target: T15, FER (Homo sapiens, UniProt P16591); assay type: binding
T15 construct: purchased Eurofins DiscoverX KINOMEscan
In short: as §2

TTK = biological target: T16, TTK (Homo sapiens, UniProt P33981); assay type: binding
T16 construct: purchased Eurofins DiscoverX KINOMEscan
In short: as §2

PCTK1 = biological target: T17, PCTK1 (Homo sapiens, UniProt Q00536); assay type: binding
T17 construct: purchased Eurofins DiscoverX KINOMEscan
In short: as §2

CDK7 = biological target: T18, CDK7 (Homo sapiens, UniProt P50613); assay type: binding
T18 construct: purchased Eurofins DiscoverX KINOMEscan
In short: as §2

SNRK = biological target: T19, SNRK (Homo sapiens, UniProt Q9NRH2); assay type: binding
T19 construct: purchased Eurofins DiscoverX KINOMEscan
T19 sequence (Q9NRH2 whole entry): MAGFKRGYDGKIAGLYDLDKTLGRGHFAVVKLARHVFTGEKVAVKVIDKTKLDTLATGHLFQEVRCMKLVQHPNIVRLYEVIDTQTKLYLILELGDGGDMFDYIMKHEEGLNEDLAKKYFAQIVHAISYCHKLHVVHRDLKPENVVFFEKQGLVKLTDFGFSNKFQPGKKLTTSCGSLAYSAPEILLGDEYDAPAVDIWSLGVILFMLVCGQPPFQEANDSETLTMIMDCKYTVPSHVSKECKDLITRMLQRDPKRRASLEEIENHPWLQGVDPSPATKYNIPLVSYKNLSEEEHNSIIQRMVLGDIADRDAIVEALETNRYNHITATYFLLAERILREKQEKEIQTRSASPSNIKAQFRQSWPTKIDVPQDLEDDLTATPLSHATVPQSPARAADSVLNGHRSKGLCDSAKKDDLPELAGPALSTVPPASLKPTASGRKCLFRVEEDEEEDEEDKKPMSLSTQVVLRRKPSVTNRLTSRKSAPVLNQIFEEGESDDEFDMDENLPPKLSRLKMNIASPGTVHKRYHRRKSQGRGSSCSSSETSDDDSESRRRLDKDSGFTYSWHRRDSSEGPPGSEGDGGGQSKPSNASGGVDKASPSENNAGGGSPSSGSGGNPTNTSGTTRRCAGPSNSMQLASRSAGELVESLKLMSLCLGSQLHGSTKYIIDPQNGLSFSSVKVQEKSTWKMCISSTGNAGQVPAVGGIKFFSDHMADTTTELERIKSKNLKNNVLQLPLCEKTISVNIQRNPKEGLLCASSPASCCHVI
In short: as §2

RET = biological target: T20, RET (Homo sapiens, UniProt P07949); assay type: binding
T20 construct: purchased Eurofins DiscoverX KINOMEscan
T20 sequence (P07949 29-1114): as the sequence (P07949 29-1114 V804M) above, with M776V counted along it
In short: as §2

CAMK2B = biological target: T21, CAMK2B (Homo sapiens, UniProt Q13554); assay type: binding
T21 construct: purchased Eurofins DiscoverX KINOMEscan
In short: as §2

ABL1 (M351T)-P = biological target: T22, ABL1 (M351T)-P (Homo sapiens, UniProt P00519, M351T); assay type: binding
T22 construct: purchased Eurofins DiscoverX KINOMEscan
In short: as §2

MST2 = biological target: T23, MST2 (Homo sapiens, UniProt Q13188); assay type: binding
T23 construct: purchased Eurofins DiscoverX KINOMEscan
In short: as §2

PIK3CA (E545K) = biological target: T24, PIK3CA (E545K) (Homo sapiens, UniProt P42336, E545K); assay type: binding
T24 construct: purchased Eurofins DiscoverX KINOMEscan
In short: as §2

FGFR3 = biological target: T25, FGFR3 (Homo sapiens, UniProt P22607); assay type: binding
T25 construct: purchased Eurofins DiscoverX KINOMEscan
T25 sequence (P22607 23-806): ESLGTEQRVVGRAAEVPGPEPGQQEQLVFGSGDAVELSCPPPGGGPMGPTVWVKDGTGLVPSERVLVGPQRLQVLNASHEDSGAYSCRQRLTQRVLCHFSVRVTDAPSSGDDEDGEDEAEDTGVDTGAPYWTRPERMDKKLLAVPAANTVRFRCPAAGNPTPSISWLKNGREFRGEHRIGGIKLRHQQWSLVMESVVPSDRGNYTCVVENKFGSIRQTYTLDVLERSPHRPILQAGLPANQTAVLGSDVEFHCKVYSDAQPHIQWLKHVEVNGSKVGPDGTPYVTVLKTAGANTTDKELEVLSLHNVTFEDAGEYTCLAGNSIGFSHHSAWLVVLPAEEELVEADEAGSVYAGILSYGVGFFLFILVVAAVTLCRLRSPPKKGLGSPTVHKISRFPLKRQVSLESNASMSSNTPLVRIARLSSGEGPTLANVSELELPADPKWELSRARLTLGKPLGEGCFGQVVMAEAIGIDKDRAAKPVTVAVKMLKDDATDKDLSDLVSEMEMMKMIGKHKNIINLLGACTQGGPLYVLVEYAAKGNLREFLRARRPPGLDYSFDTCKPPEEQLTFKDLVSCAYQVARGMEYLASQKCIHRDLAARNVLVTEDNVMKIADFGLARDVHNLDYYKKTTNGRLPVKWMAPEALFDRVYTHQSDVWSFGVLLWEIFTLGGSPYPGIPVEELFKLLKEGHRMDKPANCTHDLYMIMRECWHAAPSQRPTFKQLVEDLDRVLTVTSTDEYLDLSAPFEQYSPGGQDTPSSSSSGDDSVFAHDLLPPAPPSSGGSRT
In short: as §3

BRK = biological target: T26, BRK (Homo sapiens, UniProt Q13882); assay type: binding
T26 construct: purchased Eurofins DiscoverX KINOMEscan
In short: as §2

EPHB2 = biological target: T27, EPHB2 (Homo sapiens, UniProt P29323); assay type: binding
T27 construct: purchased Eurofins DiscoverX KINOMEscan
In short: as §3

EGFR (T790M) = biological target: T28, EGFR (T790M) (Homo sapiens, UniProt P00533, T790M); assay type: binding
T28 construct: purchased Eurofins DiscoverX KINOMEscan
T28 sequence (P00533 25-1210 T790M): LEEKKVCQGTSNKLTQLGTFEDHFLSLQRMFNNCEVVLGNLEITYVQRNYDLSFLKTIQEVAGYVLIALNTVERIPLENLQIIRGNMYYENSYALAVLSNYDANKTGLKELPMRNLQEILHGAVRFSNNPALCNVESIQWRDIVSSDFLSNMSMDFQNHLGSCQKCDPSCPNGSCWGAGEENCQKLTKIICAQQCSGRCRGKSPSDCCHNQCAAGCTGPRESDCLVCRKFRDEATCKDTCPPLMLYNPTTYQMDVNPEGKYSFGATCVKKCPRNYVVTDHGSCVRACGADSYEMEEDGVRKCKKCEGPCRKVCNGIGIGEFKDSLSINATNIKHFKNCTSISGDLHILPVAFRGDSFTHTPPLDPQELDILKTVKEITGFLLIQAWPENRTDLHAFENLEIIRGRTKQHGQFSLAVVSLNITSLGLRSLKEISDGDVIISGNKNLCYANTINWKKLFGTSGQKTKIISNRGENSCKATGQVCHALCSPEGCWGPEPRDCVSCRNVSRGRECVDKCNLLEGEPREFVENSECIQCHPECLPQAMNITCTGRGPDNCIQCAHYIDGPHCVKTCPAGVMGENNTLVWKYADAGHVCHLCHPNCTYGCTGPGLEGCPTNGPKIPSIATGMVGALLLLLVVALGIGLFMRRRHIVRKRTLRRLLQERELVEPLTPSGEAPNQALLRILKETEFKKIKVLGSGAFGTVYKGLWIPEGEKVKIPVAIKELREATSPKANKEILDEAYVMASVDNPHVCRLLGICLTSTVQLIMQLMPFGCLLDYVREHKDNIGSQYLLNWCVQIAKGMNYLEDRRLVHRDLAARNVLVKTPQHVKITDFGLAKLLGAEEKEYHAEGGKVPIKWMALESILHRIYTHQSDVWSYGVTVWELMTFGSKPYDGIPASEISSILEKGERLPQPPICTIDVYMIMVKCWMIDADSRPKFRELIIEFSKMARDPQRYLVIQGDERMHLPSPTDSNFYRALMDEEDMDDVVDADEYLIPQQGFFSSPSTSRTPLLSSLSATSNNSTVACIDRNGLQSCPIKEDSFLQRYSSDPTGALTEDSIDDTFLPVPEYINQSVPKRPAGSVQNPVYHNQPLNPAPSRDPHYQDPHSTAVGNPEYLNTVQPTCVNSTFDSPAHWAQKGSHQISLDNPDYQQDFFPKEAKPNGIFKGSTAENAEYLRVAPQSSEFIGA
In short: as §3

CSNK1E = biological target: T29, CSNK1E (Homo sapiens, UniProt P49674); assay type: binding
T29 construct: purchased Eurofins DiscoverX KINOMEscan
In short: as §3

CAMK1D = biological target: T30, CAMK1D (Homo sapiens, UniProt Q8IU85); assay type: binding
T30 construct: purchased Eurofins DiscoverX KINOMEscan
In short: as §2

BRAF (V600E) = biological target: T31, BRAF (V600E) (Homo sapiens, UniProt P15056, V600E); assay type: binding
T31 construct: purchased Eurofins DiscoverX KINOMEscan
In short: as §2

PRKG2 = biological target: T32, PRKG2 (Homo sapiens, UniProt Q13237); assay type: binding
T32 construct: purchased Eurofins DiscoverX KINOMEscan
In short: as §3

LYN = biological target: T33, LYN (Homo sapiens, UniProt P07948); assay type: binding
T33 construct: purchased Eurofins DiscoverX KINOMEscan
In short: as §2

CSNK1A1 = biological target: T34, CSNK1A1 (Homo sapiens, UniProt P48729); assay type: binding
T34 construct: purchased Eurofins DiscoverX KINOMEscan
In short: as §2

IRAK4 = biological target: T35, IRAK4 (Homo sapiens, UniProt Q9NWZ3); assay type: binding
T35 construct: purchased Eurofins DiscoverX KINOMEscan
In short: as §3

BRAF = biological target: T36, BRAF (Homo sapiens, UniProt P15056); assay type: binding
T36 construct: purchased Eurofins DiscoverX KINOMEscan
In short: as §3

[1] = biological target: T37, RPS6KA5 (Kin. Dom.1-N-term.) (Homo sapiens, UniProt O75582); assay type: binding
T37 construct: RPS6KA5 (Kin. Dom.1-N-term.); purchased Eurofins DiscoverX KINOMEscan
In short: as §2

Q: Which results are given for O=C1Nc2c(cc([N+](=O)[O-])c3c2CCCC3)C1=NO [Compound 5d, 3-(Hydroxyimino)-5-nitro-1,3,6,7,8,9-hexahydro-2H-benzo[g]indol-2-one]?
A: Inhib. (%) (FLT3 (ITD, D835V)): 65%; Inhib. (%) (FLT3 (ITD)): 29%; inhibition at 10 µM (PIK3CA (Q546K)): 40%; inhibition at 10 µM (MAP3K2): 79%; inhibition at 10 µM (TIE1): 12%; inhibition at 10 µM (CHEK2): 48%; inhibition at 10 µM (WEE2): 0%; inhibition at 10 µM (MYLK2): 30%; inhibition at 10 µM (BMX): 13%; inhibition at 10 µM (EPHB6): 80%; inhibition at 10 µM (KIT (D816V)): 22%; inhibition at 10 µM (DMPK): 49%; inhibition at 10 µM (BLK): 23%; inhibition at 10 µM (MST1R): 0%; inhibition at 10 µM (RIPK2): 0%; inhibition at 10 µM (RET (V804M)): 4%; inhibition at 10 µM (FER): 39%; inhibition at 10 µM (TTK): 95.6%; inhibition at 10 µM (PCTK1): 5%; inhibition at 10 µM (CDK7): 95.8%; inhibition at 10 µM (SNRK): 22%; inhibition at 10 µM (RET): 8%; inhibition at 10 µM (CAMK2B): 70%; inhibition at 10 µM (ABL1 (M351T)-P): 5%; inhibition at 10 µM (MST2): 39%; inhibition at 10 µM (PIK3CA (E545K)): 0%; inhibition at 10 µM (FGFR3): 14%; inhibition at 10 µM (BRK): 0%; inhibition at 10 µM (EPHB2): 11%; inhibition at 10 µM (EGFR (T790M)): 0%; inhibition at 10 µM (CSNK1E): 80%; inhibition at 10 µM (CAMK1D): 65%; inhibition at 10 µM (BRAF (V600E)): 23%; inhibition at 10 µM (PRKG2): 6%; inhibition at 10 µM (LYN): 9%; inhibition at 10 µM (CSNK1A1): 93.5%; inhibition at 10 µM (IRAK4): 86%; inhibition at 10 µM (BRAF): 28%; inhibition at 10 µM [1]: 4%
